Results taken from patent US20090124606A1, “Composition for Treatment of Psychosis” (priority 2005, published 2009).

Assays:
NMRI mice = experiment: Inhibition of catalepsy generated by haloperidol (45° inclined grid); type: in vivo
Method: Experiments were elaborated on 20-25 g weight NMRI mice. Groups of 10 mice were treated intraperitoneally with 15 mg/kg of haloperidol and carrier agent. Deramciclane (and carriers) were administered orally in different doses 60 minutes later. After a subsequent 60 minutes period mice were placed to a grid which has an inclination angle of 45°. In case of the animals were motionless for more than 30 seconds on the grid the events were seen as catalepsy. The procedure was repeated in every 30 minutes for 3 hours.
The effects are shown by percentage of changes compared to control group.

[1] = deramciclane alone; cited from earlier work
5-HT2A = 5-HT2A (Homo sapiens, UniProt P28223); settings: read-out: Receptor Affinity (Ki); cited from earlier work
Dopamine D2 = Dopamine D2 (Homo sapiens, UniProt P14416); settings: read-out: Receptor Affinity (Ki); cited from earlier work
5-HT2C = 5-HT2C (Homo sapiens, UniProt P28335); settings: read-out: Receptor Affinity (Ki); cited from earlier work
5-HT2C, sequence (P28335 33-458, species assumed): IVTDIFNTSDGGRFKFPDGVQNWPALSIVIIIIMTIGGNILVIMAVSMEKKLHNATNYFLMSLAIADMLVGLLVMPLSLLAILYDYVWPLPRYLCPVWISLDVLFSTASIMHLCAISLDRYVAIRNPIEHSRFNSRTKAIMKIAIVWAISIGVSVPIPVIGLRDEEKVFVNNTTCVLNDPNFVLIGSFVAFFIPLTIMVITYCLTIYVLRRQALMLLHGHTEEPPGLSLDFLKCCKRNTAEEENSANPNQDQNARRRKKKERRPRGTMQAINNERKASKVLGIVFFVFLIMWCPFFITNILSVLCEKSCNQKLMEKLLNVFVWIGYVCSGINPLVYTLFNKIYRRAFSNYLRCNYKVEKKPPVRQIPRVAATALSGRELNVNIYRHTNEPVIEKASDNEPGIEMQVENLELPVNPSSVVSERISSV

5-HT2A, sequence (P28223 whole entry, species assumed): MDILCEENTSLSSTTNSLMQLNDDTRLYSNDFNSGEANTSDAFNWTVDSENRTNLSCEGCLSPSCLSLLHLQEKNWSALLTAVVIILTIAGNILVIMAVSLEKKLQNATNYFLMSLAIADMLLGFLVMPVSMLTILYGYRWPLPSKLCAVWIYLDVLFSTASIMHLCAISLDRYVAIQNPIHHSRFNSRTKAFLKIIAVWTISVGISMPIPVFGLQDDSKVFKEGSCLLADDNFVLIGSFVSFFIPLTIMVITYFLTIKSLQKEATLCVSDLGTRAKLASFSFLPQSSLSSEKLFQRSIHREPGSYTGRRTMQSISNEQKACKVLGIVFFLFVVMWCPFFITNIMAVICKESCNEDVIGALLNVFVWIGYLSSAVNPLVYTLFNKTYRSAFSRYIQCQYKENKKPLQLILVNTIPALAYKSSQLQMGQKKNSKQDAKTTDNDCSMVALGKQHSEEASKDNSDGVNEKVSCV
Dopamine D2, sequence (P14416 whole entry): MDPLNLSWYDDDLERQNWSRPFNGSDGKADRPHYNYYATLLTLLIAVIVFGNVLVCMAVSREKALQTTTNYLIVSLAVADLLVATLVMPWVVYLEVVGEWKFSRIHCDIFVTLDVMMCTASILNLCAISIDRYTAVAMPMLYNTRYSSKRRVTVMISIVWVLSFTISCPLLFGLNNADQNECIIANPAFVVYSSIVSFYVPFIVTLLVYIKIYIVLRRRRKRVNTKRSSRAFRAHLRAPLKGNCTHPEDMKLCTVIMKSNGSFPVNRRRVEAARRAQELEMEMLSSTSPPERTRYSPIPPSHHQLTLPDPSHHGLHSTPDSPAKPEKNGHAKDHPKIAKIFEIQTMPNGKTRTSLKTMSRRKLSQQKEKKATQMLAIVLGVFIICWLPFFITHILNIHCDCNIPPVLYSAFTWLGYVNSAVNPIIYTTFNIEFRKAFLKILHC

Row | SMILES | Catalepsy (average ± SE)/10 animals (NMRI mice; haloperidol 15 mg/kg ip. alone (plus carrier)) | Catalepsy caused by the compound by itself (in words) [1] | Ki (5-HT2A) [nM] | Ki (Dopamine D2) [nM] | Catalepsy (average ± SE)/10 animals (NMRI mice; deramciclane 20 mg/kg po. + haloperidol 15 mg/kg ip., p < 0.05 vs haloperidol) | Catalepsy (average ± SE)/10 animals (NMRI mice; deramciclane 40 mg/kg po. + haloperidol 15 mg/kg ip., p < 0.05 vs haloperidol) | Catalepsy (average ± SE)/10 animals (NMRI mice; deramciclane 80 mg/kg po. + haloperidol 15 mg/kg ip., p < 0.05 vs haloperidol) | Inhibition of catalepsy generated by haloperidol (in words) (NMRI mice; deramciclane 20-80 mg/kg po., haloperidol 15 mg/kg ip.) | Ki (5-HT2C) [nM]
1 | O=C(CCCN1CCC(O)(c2ccc(Cl)cc2)CC1)c1ccc(F)cc1 [Haloperoidol, haloperidol, reference compound] | 9.3 ± 0.4 /10 animals |  |  |  |  |  |  |  | 
2 | CN(C)CCO[C@]1(c2ccccc2)C[C@H]2CC[C@]1(C)C2(C)C [Deramciclane, (1R,2S,4R)-(−)-2-[N,N-(dimethylamino-ethoxy)]-2-phenyl-1,7,7-trimethyl-biciklo[2.2.1]heptane] |  | does not cause catalepsy by itself | 11 | 113 | 6.5 ± 0.7 /10 animals | 4.7 ± 1.3 /10 animals | 3.5 ± 1.5 /10 animals | inhibits the catalepsy generated by haloperidol in a dose dependent way | 27
